Drawing on ChEMBL document CHEMBL1255248, “Fitness of Streptococcus pneumoniae fluoroquinolone-resistant strains with topoisomerase IV recombinant genes” (2008), this text covers MIC for one molecule.

The test system of experiment [1] is Streptococcus pneumoniae. The experiment is described as follows: Antimicrobial activity against ciprofloxacin-resistant Streptococcus pneumoniae T14 harboring gyrA mutant gene by agar dilution method.
In experiment [2] the test system is Streptococcus pneumoniae. The experiment is described as follows: Antimicrobial activity against ciprofloxacin-resistant Streptococcus pneumoniae T16 harboring parC mutant gene by agar dilution method. A general note: In agar dilution the substance is mixed into plates at graded concentrations.
The test system of experiment [3] is Streptococcus pneumoniae. The experiment is described as follows: Antimicrobial activity against ciprofloxacin-resistant Streptococcus pneumoniae T8 harboring gyrA mutant gene by agar dilution method.
The subject of experiment [4] is Streptococcus pneumoniae. The experiment is described as follows: Antimicrobial activity against ciprofloxacin-resistant Streptococcus pneumoniae T1 harboring parC mutant gene by agar dilution method.
Experiment [5] deals with Streptococcus pneumoniae. The experiment is described as follows: Antimicrobial activity against ciprofloxacin-resistant Streptococcus pneumoniae T12 harboring gyrA mutant gene by agar dilution method.
The subject of experiment [6] is Streptococcus pneumoniae. The experiment is described as follows: Antimicrobial activity against ciprofloxacin-resistant Streptococcus pneumoniae T28 harboring gyrA mutant gene by agar dilution method.
Experiment [7] deals with Streptococcus pneumoniae. The experiment is described as follows: Antimicrobial activity against ciprofloxacin-resistant Streptococcus pneumoniae T30 harboring gyrA mutant gene by agar dilution method.
For experiment [8], the system named is Streptococcus pneumoniae. The experiment is described as follows: Antimicrobial activity against ciprofloxacin-resistant Streptococcus pneumoniae T20 harboring gyrA mutant gene by agar dilution method.
For experiment [9], the system named is Streptococcus pneumoniae. The experiment is described as follows: Antimicrobial activity against ciprofloxacin-resistant Streptococcus pneumoniae T6 harboring parC mutant gene by agar dilution method.
Experiment [10] concerns Streptococcus pneumoniae. The experiment is described as follows: Antimicrobial activity against ciprofloxacin-resistant Streptococcus pneumoniae T19 harboring gyrA mutant gene by agar dilution method.
The subject of experiment [11] is Streptococcus pneumoniae. The experiment is described as follows: Antimicrobial activity against ciprofloxacin-resistant Streptococcus pneumoniae T26 harboring parC mutant gene by agar dilution method.
For experiment [12], the system named is Streptococcus pneumoniae. The experiment is described as follows: Antimicrobial activity against ciprofloxacin-resistant Streptococcus pneumoniae T18 harboring gyrA mutant gene by agar dilution method.
The test system of experiment [13] is Streptococcus pneumoniae. The experiment is described as follows: Antimicrobial activity against ciprofloxacin-resistant Streptococcus pneumoniae T25 harboring gyrA mutant gene by agar dilution method.
In experiment [14] the test system is Streptococcus pneumoniae. The experiment is described as follows: Antimicrobial activity against ciprofloxacin-resistant Streptococcus pneumoniae T7 harboring gyrA mutant gene by agar dilution method.
Experiment [15] relates to Streptococcus pneumoniae. The experiment is described as follows: Antimicrobial activity against ciprofloxacin-resistant Streptococcus pneumoniae T9 harboring gyrA mutant gene by agar dilution method.
Experiment [16] relates to Streptococcus pneumoniae. The experiment is described as follows: Antimicrobial activity against ciprofloxacin-resistant Streptococcus pneumoniae T3 harboring gyrA mutant gene by agar dilution method.
Experiment [17] concerns Streptococcus pneumoniae. The experiment is described as follows: Antimicrobial activity against ciprofloxacin-resistant Streptococcus pneumoniae T2 harboring gyrA mutant gene by agar dilution method.
For experiment [18], the system named is Streptococcus pneumoniae. The experiment is described as follows: Antimicrobial activity against ciprofloxacin-resistant Streptococcus pneumoniae T4 harboring gyrA mutant gene by agar dilution method.
In experiment [19] the test system is Streptococcus pneumoniae. The experiment is described as follows: Antimicrobial activity against ciprofloxacin-resistant Streptococcus pneumoniae T13 harboring gyrA mutant gene by agar dilution method.
Experiment [20] has as its system Streptococcus pneumoniae. The experiment is described as follows: Antimicrobial activity against ciprofloxacin-resistant Streptococcus pneumoniae T23 harboring gyrA mutant gene by agar dilution method.
Experiment [21] relates to Streptococcus pneumoniae. The experiment is described as follows: Antimicrobial activity against ciprofloxacin-resistant Streptococcus pneumoniae T21 harboring parC mutant gene by agar dilution method.
Experiment [22] deals with Streptococcus pneumoniae. The experiment is described as follows: Antimicrobial activity against ciprofloxacin-resistant Streptococcus pneumoniae T29 harboring gyrA mutant gene by agar dilution method.
Experiment [23] has as its system Streptococcus pneumoniae. The experiment is described as follows: Antimicrobial activity against ciprofloxacin-resistant Streptococcus pneumoniae T11 harboring parE-ant-parC mutant gene by agar dilution method.
Experiment [24] relates to Streptococcus pneumoniae. The experiment is described as follows: Antimicrobial activity against ciprofloxacin-resistant Streptococcus pneumoniae T24 harboring gyrA mutant gene by agar dilution method.

The structures appear in SMILES notation. ≈ marks a conversion by molar mass, not a printed value.

Turning to `O=C(O)c1cn(C2CC2)c2cc(N3CCNCC3)c(F)cc2c1=O` [CIPROFLOXACIN], the MIC came out at 32 µg/mL (≈ 96.6 µM) in [1]; 2 µg/mL (≈ 6.04 µM) in experiment [2]; 32 µg/mL (≈ 96.6 µM) in experiment [3]; 4 µg/mL (≈ 12.1 µM) in experiment [4]; 32 µg/mL (≈ 96.6 µM) in experiment [5]; 32 µg/mL (≈ 96.6 µM) in experiment [6]. Further, the minimal inhibitory concentration (MIC) stood at 32 µg/mL (≈ 96.6 µM) in experiment [7]; 32 µg/mL (≈ 96.6 µM) in [8]; 2 µg/mL (≈ 6.04 µM) in experiment [9]; 32 µg/mL (≈ 96.6 µM) in experiment [10]; 4 µg/mL (≈ 12.1 µM) in experiment [11]; 64 µg/mL (≈ 193 µM) in experiment [12]. For the same molecule, the minimal inhibitory concentration (MIC) in [13] turned out to be 16 µg/mL (≈ 48.3 µM); in experiment [14] it was 32 µg/mL (≈ 96.6 µM); in [15] it was 32 µg/mL (≈ 96.6 µM); in experiment [16] it was 32 µg/mL (≈ 96.6 µM); in experiment [17], 32 µg/mL (≈ 96.6 µM); in [18] it was 32 µg/mL (≈ 96.6 µM). In addition, the MIC was found to be 32 µg/mL (≈ 96.6 µM) in experiment [19]; 16 µg/mL (≈ 48.3 µM) in experiment [20]; 2 µg/mL (≈ 6.04 µM) in [21]; 32 µg/mL (≈ 96.6 µM) in experiment [22]; 2 µg/mL (≈ 6.04 µM) in experiment [23]; 16 µg/mL (≈ 48.3 µM) in experiment [24].

As usually defined, the MIC is the lowest concentration that inhibits growth of the organism.
